Measurements as given in patent EP1073431B1, “USE OF NMDA ANTAGONISTS FOR TREATMENT OF IRRITABLE BOWEL SYNDROME” (AstraZeneca AB, priority 1998, dated 1999).
Structures can show the parent of a compound that is named as a salt.

Assays:
[1] = test system: visceromotor response (VMR) elicited by colorectal distension (CRD); assay: visceromotor response (VMR) elicited by colorectal distension (CRD) in conscious rats; assay type: in vivo, Sprague-Dawley rats; details: for VMR to noxious CRD: CRD 80 mmHg, naive rats; for effect on VMR to CRD: 1-100 nmol, hydrochloride
Description: Adult male Sprague-Dawley rats (250-350g, Harlan, San Diego, CA) served as animal subjects. Rats were housed 5-6 per cage, allowed free access to food and water, and were maintained on a 12 h light-dark cycle (lights on between 06.00 and 18.00 h).
Rats were deeply anesthetized with pentobarbital sodium (45 mg/kg, Nembutal, Abbott Labs, North Chicago, IL) administered intraperitoneally. […] The electrode leads were tunneled subcutaneously and exteriorized at the nape of the neck for future access. Some animals were also implanted with venous catheters in the femoral vein to enable i.v. administration of drugs. For intrathecal (i.t.) drug administration, an i.t. catheter (PE-10 tubing, 8.5 cm long) was inserted through the dura overlying the atlanto-occipital junction and threaded to the level of the lumbar enlargement (Yaksh and Rudy, 1976). The venous or i.t. catheter was surgically anchored to musculature at the back of the neck, and externalized with the electrode leads. The wounds were closed in layers with 4-0 silk. Rats were housed singly and allowed to recuperate for at least 3-5 days prior to testing.
The stimulus employed has been previously described (Gebhart and Sengupta, 1996). Briefly, the descending colon and rectum were distended by pressure-controlled air inflation of a 6 cm long flexible latex balloon tied around a flexible tube (Tygon). The balloon was lubricated (Surgilube, E. Fougera and Co., Melville, NY), inserted intra-anally and anchored by taping the balloon catheter to the base of the tail. […] The behavioral response quantified was the visceromotor response, a contraction of the abdominal and hindlimb (Ness and Gebhart, 1988). EMG activity in the external oblique musculature was quantified by computing the average amplitude (Dr. Alfred Bayati Astra Hässle). Each distension trial lasted 60 s and EMG activity was quantified 20 s before distension (baseline), during distension, and 20 s after distension. The increase in EMG amplitude during distension over baseline was recorded as the response.
On the day of testing, animals were briefly anesthetized with Metophane®, and the balloon was inserted and secured in place as described above. Rats were allowed to recover for 30-40 min, following which two stable control responses to CRD (80 mmHg, 20 s, 4 min interstimulus interval) were obtained.
Drugs were administered i.v. into the femoral vein through the indwelling catheter. All doses were administered in a volume of up to 230 µl followed by a flush with 100 µl of preservative-free saline over a period of 30s. Dose response curves were generated using a cumulative dosing paradigm. The first i.v. injection was made 2 min after the second control response. Subsequent doses were injected 8 min apart, thus allowing two distensions after each dose. Data are reported as the average response to the two distensions.
In one group of animals, memantine was administered to the lumbar enlargement through the indwelling i.t. catheter with the aid of a […] injection needle connected to a 25 ul Hamilton syringe by a length of polyethylene tubing (PE-10). All doses were administered in a volume of 5 µl followed by a flush with 10 µl of preservative-free saline over a period of 1 min. The progress of the injection was continuously monitored by following the movement of an air bubble in the tubing. The dose response curve was generated using a cumulative dosing paradigm. The first i.t. injection was made 2 min after the second control response. Subsequent doses were injected 8 min apart, thus allowing two distensions after each dose. Data are reported as the average response to the two distensions. […]

[2] = test system: pelvic afferent nerve activity; assay: pelvic afferent nerve activity elicited by colorectal distension in anesthetized rats; assay type: in vivo, Sprague-Dawley rats; details: intra-arterial, cumulative 1, 3, 6 and 10 mg/kg; CRD 80 mm Hg
Description: General procedures: Male Sprague-Dawley rats 425-450 g) were anesthetized initially with sodium pentobarbital (40-45 mg/kg ip) and maintained with α-chloralose (60 mg kg^-1 h^-1). The trachea was cannulated for mechanical ventilation with room air. The left common carotid artery was cannulated for recording blood pressure. The femoral artery and vein were catheterized for injection of drug and anesthetic, respectively. Rats were paralyzed with pancuronium bromide (0.3 mg/kg i.v.) and ventilated with room air (55-60 strokes/min and 3-4 ml stroke volume). Supplemental doses of pancuronium bromide (0.2-0.3 mg kg^-1 h^-1) were given to maintain paralysis during the course of experiment. The mean arterial blood pressure was monitored continuously and maintained at >80 mm Hg with supplemental intravenous injection of 5% dextrose in saline given in a bolus of 1 to 1.5 ml as required. […]
Recordings of afferent nerve action potentials: The S1 dorsal root was identified and decentralized at its entry to the spinal cord. […] Electrical activity of single units was recorded monopolarly by placing a teased fiber over one arm of a bipolar silver-silver chloride electrode; a fine strand of connective tissue was placed across the other pole of the electrode. […]

[3] = i.v., 1-10 mg/kg, conscious rats (figure legends)
[4] = i.v., most effective dose tested 60 mg/kg
[5] = intrathecal (i.t.), up to a dose of 300nmol, conscious rats

SMILES	effect on viscero-motor responses (VMR) to noxious colorectal distension [1, 3]	VMR to noxious CRD [1, 4]	effect on viscero-motor responses (VMR) to noxious colorectal distension [1, 5]	VMR to noxious CRD ([1]; i.v., most effective dose tested 100 mg/kg)	VMR to noxious CRD ([1]; i.v., most effective dose tested (dose not given))	VMR to noxious CRD ([1]; i.v., most effective dose tested 10 mg/kg)	effect on VMR to CRD ([1]; intrathecal (i.t.), conscious rats)	effect on VMR to CRD ([1]; intrathecal (i.t.), conscious rats, listed as Memantine)	pelvic nerve activity elicited by distention of the colon [2]
CCNC(Cc1cnccn1)c1ccccc1 (single isomer, unassigned; (+)) [Compound 3, (+) N-ethyl-1-phenyl-2-(3-pyrazine)ethanamine hydrochloride]	dose-dependently (1-10 mg/kg) attenuated VMR	5 % of control							
Cl.NCC(=O)NC(Cc1ccccc1)c1ccccc1 (stereo not shown) [Compound 2, 2-amino-N-(1,2-diphenylethyl)acetamide hydrochloride]	dose-dependently (1-10 mg/kg) attenuated VMR	40 % of control	None of the three compounds attenuated VMR						
Cl.NC(Cn1cccn1)c1ccccc1 (stereo not drawn) [Compound 4, alpha-phenyl-1H-pyrazole-1-ethanamine hydrochloride]	dose-dependently (1-10 mg/kg) attenuated VMR		None of the three compounds attenuated VMR	10 % of control					
N=C(N)c1cccc(CC(N)c2ccccc2)n1 (stereo not shown) [Compound 1, 2-amidino-6-(2-amino-2-phenyl)-ethylpyridine trihydrochloride]	dose-dependently (1-10 mg/kg) attenuated VMR		None of the three compounds attenuated VMR		13 % of control				
CC12CC3CC(C)(C1)CC(N)(C3)C2 [memantine, memantine hydrochloride, reference compound]	dose-dependantly attenuate VMR					28 % of control	without effect	did not attenuate VMR	reduced, in a dose-dependent fashion
